Test results from PMC3057395 (ChemMedChem, 2009).

These molecules were tested against mouse PKCα (Mus musculus, UniProt P20444) (assay: PKC binding assay). Conditions: not given.
Work on C=CCCCCCOc1ccc2c(c1)N(C)[C@@H](C(C)C)C(=O)N[C@H](CO)C2 [compound 3, 9-Hept-6-enyloxy-5-hydroxymethyl-2-isopropyl-1-methyl-1,4,5,6-tetrahydro-2H-benzo[e][1,4] diazocin-3-one] yielded a Ki of 5.4 ± 0.1 nM. With CC(=O)SCCCOc1ccc2c(c1)N(C)[C@@H](C(C)C)C(=O)N[C@H](CO)C2 [compound 9, Thioacetic acid S-[3-(5-hydroxymethyl-2-isopropyl-1-methyl-3-oxo-1,2,3,4,5,6-hexahydro-benzo[e] [1,4]diazocin-9-yloxy)-propyl] ester] the Ki was 21 ± 2.8 nM. CC(=O)SCCCCOc1ccc2c(c1)N(C)[C@@H](C(C)C)C(=O)N[C@H](CO)C2 [compound 10, Thioacetic acid S-[4-(5-hydroxymethyl-2-isopropyl-1-methyl-3-oxo-1,2,3,4,5,6-hexahydro-benzo [e][1,4]diazocin-9-yloxy)-butyl] ester] was tested, and the Ki was 15.8 ± 0.8 nM. For CC(=O)SCCCCCOc1ccc2c(c1)N(C)[C@@H](C(C)C)C(=O)N[C@H](CO)C2 [compound 11, Thioacetic acid S-[5-(5-hydroxymethyl-2-isopropyl-1-methyl-3-oxo-1,2,3,4,5,6-hexahydro-benzo[e] [1,4]diazocin-9-yloxy)-pentyl] ester], the Ki was 6.6 ± 0.2 nM. CC(=O)SCCCCCCCOc1ccc2c(c1)N(C)[C@@H](C(C)C)C(=O)N[C@H](CO)C2 [compound 13, Thioacetic acid S-[7-(5-hydroxymethyl-2-isopropyl-1-methyl-3-oxo-1,2,3,4,5,6-hexahydrobenzo[e] [1,4]diazocin-9-yloxy)-heptyl] ester] gave a Ki of 4.5 ± 0.4 nM. Molecule CC(=O)SCCCCCCCCOc1ccc2c(c1)N(C)[C@@H](C(C)C)C(=O)N[C@H](CO)C2 [compound 14, Thioacetic acid S-[8-(5-hydroxymethyl-2-isopropyl-1-methyl-3-oxo-1,2,3,4,5,6-hexahydro-benzo[e] [1,4]diazocin-9-yloxy)-octyl] ester] has a Ki of 2.8 ± 0.5 nM.

Same assay, conditions: read-out: Ki [nM] ± SEM
Molecule CC(C)[C@H]1C(=O)N[C@H](CO)Cc2ccc(O)cc2N1C [compound 2, 9-Hydroxy-5-hydroxymethyl-2-isopropyl-1-methyl-(2S,5S)-1,4,5,6-tetrahydro-2H-benzo[e][1,4] diazocin-3-one] has a Ki of 4840 ± 320 nM.
